Assay results published in patent US10624920B2, “Use of alginate oligomers in combating biofilms” (Algipharma AS, priority 2007, dated 2020).

What was measured:
Type in all cases: cell-based
[1] = test system: Pseudomonas aeruginosa biofilms; experiment: MBEC assay, Pseudomonas biofilms generated 6 hr with mucin, pretreated overnight with alginate oligomer and mucin, then antibiotic; conditions: 6 hr biofilm with mucin
Description: (§1) The MBEC method used was adapted from Moskowitz S M, et al (2004) J Clin Microbiol 42:1915-1922. After retrieval from −80° C. storage, bacterial isolates were grown on BA and then grown overnight in TSB. After dilution of the bacterial cultures to 0.5 McFarland in CAMHB with or without mucin (2.5 g/l), 100 μl was transferred to the wells of a flat-bottom 96-well microtiter plate. In Example 3, bacterial cultures were diluted to 0.5 McFarland in CAMHB with mucin (2.5 g/1) and alginate and 100 μl was transferred to the wells of a flat-bottom 96-well microtiter plate
(§2) Plates were then wrapped in parafilm to prevent dehydration and incubated at 37° C. to allow biofilm formation. Incubation times and conditions varied as described below.
(§3) After biofilm formation, planktonic cells and supernatant were removed and each well was then washed with sterile phosphate buffered saline (PBS). After washing, cells were treated with combinations of alginates and/or antibiotics with or without mucin (2.5 g/l) in 100 μl CAMHB. Plates were then wrapped in parafilm and incubated at 37° C. with gentle tilting. Incubation times and conditions varied as described below. The antibiotics and concentration ranges used are shown below.
(§4) Wells were washed with PBS and 100 μl of each concentration of a serial dilution of antibiotic in CAMHB was then added in duplicate. Plates were again wrapped in parafilm and incubated at 37° C. with gentle tilting overnight.
(§5) In all MBEC assays final cell number was assessed as follows. Wells were washed with PBS and biofilms resuspended in 100 μl CAMHB by vigorous pipetting. The optical density at 620 nm (OD620) was measured on a microplate reader (FLUOstar OPTIMA, BMG LABTECH) immediately (0 h) and after incubation at 37° C. at 6 h and 24 h.
(§6) The MBEC value is that concentration of antibiotic that inhibits all growth of the bacteria in the test sample. Bacterial growth is measured by an increase in the absorbance of the sample. Therefore, a reduction in MBEC value is an indication that the sensitivity of the sample to the antibiotic has been increased (i.e. less antibiotic is needed to prevent bacterial growth).
The MBEC assay described above was followed with mucin present throughout. Biofilms were generated in the presence of mucin during a 6 hour incubation, washed and incubated with G-fragments and mucin overnight. After washing with PBS the cultures were exposed to antibiotics (amikacin, tobramycin, oxytetracycline or a combination of amikacin and oxytetracycline) without mucin. Results are shown graphically in FIG. 4 and in tabulated form in Tables 6 and 7. […] In fact, 6% G fragments caused a the 6 hr MBEC value for oxytetracycline to drop to ⅛th of the control value. The 24 hr MBEC values for amikacin and tobramycin were halved. […]

[2] = test system: Pseudomonas aeruginosa biofilms; experiment: MBEC assay, Pseudomonas biofilms generated overnight in the presence of mucin and G-fragments, then antibiotic
Description: as §1, §2, §3, §4, §5, §6
The MBEC assay described above was followed. Biofilms were generated in plates overnight in the presence of mucin and 0, 1, 2 or 6% G fragments. After washing, biofilms were exposed to oxytetracycline (without mucin) overnight. […] 6 hr MBEC values were halved when 2% and 6% G fragments were used.

[3] = test system: Pseudomonas aeruginosa biofilms; experiment: MBEC assay, overnight Pseudomonas biofilms pretreated overnight with G-fragments and mucin, then antibiotic; conditions: overnight biofilm, mucin 2.5 g/L
Description: as §1, §2, §3, §4, §5, §6
The MBEC assay described above was followed. Biofilms were generated in plates overnight without mucin. Following a PBS wash, the biofilms were incubated with 0, 1, 2 or 6% G-fragments and mucin overnight. After washing with PBS cells were incubated overnight with antibiotics (amikacin or oxytetracycline) and without mucin. […] 6 hr MBEC values for amikacin and oxytetracycline were halved by 1% G fragments and quartered by 2 and 6% G fragments. 24 hr MBEC values for oxytetracycline were halved by all concentrations of G fragments. 24 hr MBEC values for amikacin were reduced although it was not possible to quantify this reduction.

[4] = exposed to 0 G-fragments overnight
[5] = exposed to 6% G-fragments overnight
[6] = biofilm generated with mucin 2.5 g/L and G-fragments 0
[7] = biofilm generated with mucin 2.5 g/L and G-fragments 1%
[8] = biofilm generated with mucin 2.5 g/L and G-fragments 2%
[9] = biofilm generated with mucin 2.5 g/L and G-fragments 6%

Row | SMILES | MBEC value at 6 hr after overnight exposure to antibiotic [1, 4] | MBEC value at 24 hr after overnight exposure to antibiotic [1, 4] | MBEC value at 6 hr after overnight exposure to antibiotic [1, 5] | MBEC value at 24 hr after overnight exposure to antibiotic [1, 5] | MBEC value at 6 hr after overnight exposure to antibiotic [2, 6] | MBEC value at 24 hr after overnight exposure to antibiotic [2, 6] | MBEC value at 6 hr after overnight exposure to antibiotic [2, 7] | MBEC value at 24 hr after overnight exposure to antibiotic [2, 7] | MBEC value at 6 hr after overnight exposure to antibiotic [2, 8] | MBEC value at 24 hr after overnight exposure to antibiotic [2, 8] | MBEC value at 6 hr after overnight exposure to antibiotic [2, 9] | MBEC value at 24 hr after overnight exposure to antibiotic [2, 9] | MBEC value at 6 hours after overnight exposure to antibiotic ([3]; G-fragments 0) | MBEC value at 24 hours after overnight exposure to antibiotic ([3]; G-fragments 0) | MBEC value at 6 hours after overnight exposure to antibiotic ([3]; G-fragments 1%) | MBEC value at 24 hours after overnight exposure to antibiotic ([3]; G-fragments 1%) | MBEC value at 6 hours after overnight exposure to antibiotic ([3]; G-fragments 2%) | MBEC value at 24 hours after overnight exposure to antibiotic ([3]; G-fragments 2%) | MBEC value at 6 hours after overnight exposure to antibiotic ([3]; G-fragments 6%) | MBEC value at 24 hours after overnight exposure to antibiotic ([3]; G-fragments 6%)
1 | NC[C@H]1O[C@H](O[C@H]2[C@H](O)[C@@H](O[C@H]3O[C@H](CO)[C@@H](O)[C@H](N)[C@H]3O)[C@H](N)C[C@@H]2N)[C@H](N)C[C@@H]1O [Tobramycin, tobramycin] | 32 µg/mL | 512 µg/mL | 8 µg/mL | 256 µg/mL |  |  |  |  |  |  |  |  |  |  |  |  |  |  |  | 
2 | CN(C)[C@@H]1C(O)=C(C(N)=O)C(=O)[C@@]2(O)C(O)=C3C(=O)c4c(O)cccc4[C@@](C)(O)[C@H]3[C@H](O)[C@@H]12 [Oxytetracycline, oxytetracycline] | 512 µg/mL | 1024 µg/mL | 64 µg/mL | 1024 µg/mL | 512 µg/mL | 4096 µg/mL | 512 µg/mL | 2048 µg/mL | 256 µg/mL | 2048 µg/mL | 256 µg/mL | 2048 µg/mL | 512 µg/mL | 2048 µg/mL | 256 µg/mL | 1024 µg/mL | 128 µg/mL | 1024 µg/mL | 128 µg/mL | 1024 µg/mL
3 | NCC[C@H](O)C(=O)N[C@@H]1C[C@H](N)[C@@H](O[C@H]2O[C@H](CN)[C@@H](O)[C@H](O)[C@H]2O)[C@H](O)[C@H]1O[C@H]1O[C@H](CO)[C@@H](O)[C@H](N)[C@H]1O [Amikacin, amikacin] | 64 µg/mL | >4096 µg/mL | 16 µg/mL | 4096 µg/mL |  |  |  |  |  |  |  |  | 2048 µg/mL | >4096 µg/mL | 1024 µg/mL | 4096 µg/mL | 512 µg/mL | 4096 µg/mL | 512 µg/mL | 4096 µg/mL
